According to US20040009967A1, “Pyridyl alkene- and pyridyl alkine- acid amides as cytostatics and immuno-suppressives” (Klinge Pharma GmbH, priority 1996, published 2004):
Where two headings read alike, the source gives them in different places.

Assays:
HepG2 cells = test: Growth inhibition of HepG2 cells, six days of incubation, sulforhodamin-B-method; assay type: cell-based, human; settings: six days of substance incubation, read-out: IC50-value (concentration in which the cell growth was inhibited by 50%)
Experimental: HepG2 cells plated at a density of 20,000 cells/ml in 12-well plastic dishes. Cultivation occured in Richters IMEM-ZO nutrient medium with 5% fetal calf serum (FCS) in a tissue culture incubator with a gas mixture of 5% CO2 and 95% air at a temperature of 37° C. One day after plating, the culture medium was aspirated from the cells and replaced by fresh medium which contained the respective concentrations of the test substances. For the individual concentrations and the controls without test substances, three-fold batches were done for each. Three days after the beginning of treatment, the medium was again renewed with the test compounds. After six days of substance incubation, the test was ended and the protein amount in the individual wells was determined with the sulforhodamin-B-method (according to P. Skehan et al.: New Colorimetric Cytotoxity Assay for Anticancer-Drug Screening. J. Natl. Cancer Inst. 82: 1107-1112, 1990). The IC50-values (defined as that concentration in which the cell growth was inhibited by 50%) was taken from the dose-response curves and given as a comparative measurement for the activity of the test compounds.

[1] = system: lymphocytes from the spleen of a Swiss mouse; test: Immunosuppressing activity: vitality of freshly isolated spleen lymphocytes, flow-through cytometer; assay type: cell-based; settings: 2 days incubation, read-out: IC50 (percentage amount of vital cells)
Source text: Many anti-tumor agents have not only a cytotoxic effect on tumor cells, but also on the blood cell system. This leads to a weakening of the immune defence, which can, in turn, be specifically employed to suppress the rejection reaction after an organ transplantation for example. Therefore, a use of the main compounds, optionally in combination with other compounds effective for these indications is suitable in diseases such as psoriasis or autoimmune diseases. In order to test the possibility for a therapeutic use in illnesses of this type, the substance activity was tested on freshly isolated lymphocytes as follows:
The spleen of a Swiss mouse served as a lymphocyte source. The lymphocyte population was isolated from the spleen cell suspension over a ficoll gradient and taken up in IMEM-ZO culture medium with 0,1% dextran 70,000 and 2% fetal calf serum. The cells were plated at a density of ca. 500,000 cells/well/ml in a 12-well plate, 1 ml doubly concentrated test substance solution was pipetted per well and this was subsequently incubated in a tissue culture incubator at 37° C. and 5% CO2. After 2 days, a 1 ml-aliquot with 5 μl of the fluorescent dye solutions propidium iodide (8 mg/ml) and 3,3′-dihexyloxacarbocyanin iodide (40 μg/ml) each was added per well, and incubated for 3 minutes at room temperature. Subsequently, 10,000 cells per each sample were measured on a flow-through cytometer and the percentage amount of vital cells in the population was determined. By means of the dose-response curves, IC50-values were calculated which were also employed in the following Tables for the characterization of the individual substances: […]

| SMILES | melting point | IC50 (HepG2 cells; Homo sapiens, 144 h) | IC50 ([1]; Lymphocyte, 48 h) | further results |
| --- | --- | --- | --- | --- |
| O=C(C=Cc1cccnc1)NCCCCC1CCN(C2c3ccccc3CSc3ccccc32)CC1 (stereo not drawn) [Substance 136, N-{4-[1-(6,11-dihydro-dibenzo[b,e]thiepin-11-yl)-piperidin-4-yl]-butyl}-3-(pyridin-3-yl)-acrylamide] | 89 to 91 °C | 2 nM |  |  |
| O=C(C=Cc1cccnc1)NCCCCC1CCN(C(=O)C(c2ccccc2)c2ccccc2)CC1 [Substance 150, N-[4-(1-diphenylacetyl-piperidin-4-yl)-butyl]-3-(pyridin-3-yl)-acrylamide] | 161 °C |  | 0.2 nM |  |
| O=C(C=Cc1cccnc1)NCCCCC1CCN(C(=O)c2ccccc2)CC1 [Substance 159, N[4-(1-benzoylpiperidin-4-yl)-butyl]-3-(pyridin-3-yl)-acrylamide] |  |  |  | IC50 (HepG2 cells): 0.5 nM; IC50 [1]: 3 nM |
| O=C(C=Cc1cccnc1)NCCCCC1CCN(C(=O)c2cccc3c2-c2ccccc2C3=O)CC1 [Substance 178, N-{4-[1-(9-oxo-9H-fluoren-4-yl-carbonyl)-piperidin-4-yl]-butyl}-3-(pyridin-3-yl)-acrylamide] |  | 0.7 nM |  |  |
| O=C(C=Cc1cccnc1)NCCCCC1CCN(C(=O)Nc2cccc3ccccc23)CC1 [Substance 195, N-{4-[1-(1-naphthylaminocarbonyl)-piperidin-4-yl]-butyl}-3-(pyridin-3-yl)-acrylamide] | 198 to 200 °C |  | 2 nM |  |
| O=C(C=Cc1cccnc1)NCCCCC1CCN(C(=O)N(c2ccccc2)c2ccccc2)CC1 [Substance 199, N-{4-[1-(diphenylaminocarbonyl)-piperidin-4-yl]-butyl}-3-(pyridin-3-yl)-acrylamide] |  | 1 nM | 0.04 nM |  |
| O=C(C=Cc1cccnc1)NCCCCC1CCN(S(=O)(=O)c2ccc3ccccc3c2)CC1 [Substance 219, N-{4-[1-(2-naphthyl-sulfonyl)-piperidin-4-yl]-butyl}-3-(pyridin-3-yl)-acrylamide] | 85 to 87 °C |  |  |  |
